Assay results: patent US7265096B2 (XenoPort, Inc., priority 2002, dated 2007)

Assays:
[1] = Pharmacokinetics and intestinal exposure to gemcitabine after oral dosing in mice; assay type: in vivo; details: male, mouse, blood, po, 20 mg-eq. gemcitabine/kg; read-out: Fpo (oral bioavailability)
Method: Blood samples (0.5 mL) were obtained by cardiac puncture from 4 animals at each time point (1, 5, 10, 15, 30, 45 minutes and 1, 2, 4, 6 and 24 hr post-dosing). Samples were immediately transferred to tubes containing 10 μL of tetrahydrouridine (50 μg/mL in 50% methanol/water) to prevent further deamination and aliquots (100 μL) were quenched with a solution of 1% w/w formic acid in acetonitrile (300 μL). Quenched blood samples were stored at −80° C. until analyzed. Following collection of blood samples, the small intestine of each animal was removed, rinsed with saline, scraped to remove the mucosal layer, and the mucosal tissue was transferred to a pre-weighed vial containing 10 μL of tetrahydrouridine (50 μg/mL in 50% methanol/water). Sample vials were snap frozen in dry ice/acetone and stored at −80° C. until analyzed. Mucosal tissue samples were diluted 1:10 in water and 100 μL of the resulting sample was added to 400 μL of methanol.

[2] = system: human ENT1, ENT2, CNT1 and CNT3; details: literature (Mackey et al.; Fang et al.); cited from earlier work
CNT2 = target: T1, CNT2 (Homo sapiens, UniProt O43868); details: literature (Mackey et al.; Fang et al.); cited from earlier work
T1 sequence (O43868 1-658): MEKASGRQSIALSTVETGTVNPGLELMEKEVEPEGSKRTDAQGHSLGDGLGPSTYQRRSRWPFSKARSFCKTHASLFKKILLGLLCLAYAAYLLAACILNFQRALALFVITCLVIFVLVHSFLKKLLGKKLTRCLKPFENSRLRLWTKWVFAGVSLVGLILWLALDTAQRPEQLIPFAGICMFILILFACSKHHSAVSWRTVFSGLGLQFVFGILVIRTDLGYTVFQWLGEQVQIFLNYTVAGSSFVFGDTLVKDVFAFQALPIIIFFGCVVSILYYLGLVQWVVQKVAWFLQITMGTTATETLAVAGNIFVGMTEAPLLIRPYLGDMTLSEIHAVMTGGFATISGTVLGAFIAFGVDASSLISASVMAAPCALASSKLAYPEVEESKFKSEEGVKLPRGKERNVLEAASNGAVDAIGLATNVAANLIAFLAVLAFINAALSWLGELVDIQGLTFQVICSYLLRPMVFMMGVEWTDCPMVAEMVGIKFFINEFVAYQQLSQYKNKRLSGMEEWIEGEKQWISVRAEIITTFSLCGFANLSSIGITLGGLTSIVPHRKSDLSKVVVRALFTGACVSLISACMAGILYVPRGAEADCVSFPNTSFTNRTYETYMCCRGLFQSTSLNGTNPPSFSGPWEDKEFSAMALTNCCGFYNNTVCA

[3] = intravenous infusion for up to 12 hours; cited from earlier work

Nc1ccn([C@@H]2O[C@H](CO)[C@@H](O)C2(F)F)c(=O)n1 [gemcitabine, 2′,2′-difluoro-2′-deoxycytidine]
bioavailability [1]: 20%
Transport by human ENT1, ENT2, CNT1 and CNT3 [2]: transported by human ENT1, ENT2, CNT1 and CNT3
Transport by CNT2 (CNT2): not the purine-selective concentrative transporter CNT2
Dose reported to be tolerated in patients [3]: 10 mg/m^2/min
